According to patent US20130216579A1, “METHODS AND COMPOSTITIONS FOR GENE EDITING OF A PATHOGEN” (priority 2012, published 2013):

Experiments:
[1] = system: GC03^crt-Dd2 G9 and GC03^crt-Dd2 H6 parasite clones; assay: In vitro CQ IC50 of pfcrt allelic replacement clones vs GC03 parent; assay type: cell-based, P. falciparum
Protocol: To quantify the efficiency of pfcrt allelic replacement, clones were generated by limiting dilution and analyzed by PCR. We observed replacement events in 13/82 (15.9%) 106/1 clones and 4/83 (4.8%) GC03 clones (FIG. 3B).
(§1) We also confirmed the CQ resistance phenotype of two gene-edited lines, 106/1^13/15mut2 and 106/1^14/15mut1 (FIG. 4A). […] Parasitemia was determined by flow cytometry after a 72 h incubation with drug. Parasites were stained with 1.6 μM Mito Tracker® (Molecular probes, Invitrogen) and 2×Sybr® Green (Molecular probes, Invitrogen) in 1×PBS supplemented with 5% FBS as described. In vitro IC50 values were calculated by non-linear regression analysis and Mann-Whitney U tests were employed for statistical analysis.

[2] = system: 106/1^13/15mut2 and 106/1^14/15mut1 parasite lines; assay: In vitro CQ IC50 of gene-edited 106/1 lines, parasitemia by flow cytometry after 72 h; assay type: cell-based, P. falciparum; conditions: lines 106/1^13/15mut2 and 106/1^14/15mut1, 72 h
Protocol: as §1

CQS strain 106/1 = assay: CQ exposure of non-transfected 106/1 cultures; assay type: cell-based, P. falciparum; conditions: 33 nM CQ, six independent non-transfected 106/1 cultures
[3] = system: ZFN 30413 (synthetic construct); assay: cell_activity; conditions: pair with 30415; K76I conversion 29/29 and 25/25 in 106/1 with CQ selection; 2/36 clones in Dd2 without selection
[4] = system: ZFN 30414 (synthetic construct); assay: cell_activity; conditions: pair with 30415; K76I conversion 38/38, 28/28 and 31/31 in 106/1 with CQ selection; 10/40 clones in Dd2 without selection

CCN(CC)CCCC(C)Nc1ccnc2cc(Cl)ccc12 (centres unmarked) [CQ, chloroquine]
shift in CQ IC50 values compared to the GC03 parent [1]: 4- to 5 fold | shift in CQ IC50 values relative to the unmodified 106/1 parent line [2]: 5-6 fold | parasite outcome under CQ exposure (CQS strain 106/1): yielded no parasites after 90 days

CTGTTAAGGTCGACAAGGGAAAAAAAAA (double strand) [pfcrt 30413 target site]
activity [3]: 100%

CTGTTAAGGTCGACAAGGGAAAAAAAAA (double strand) [pfcrt 30414 target site]
activity [4]: 100%
